Results reported in US4942040A, “Pharmaceutical preparation and a process for its preparation” (priority 1987, dated 1990).

Tests used:
Assay type in all cases: physicochemical
[1] = Cumulative in vitro dissolution of felodipine and metoprolol (Example 1 tablet), USP dissolution apparatus No. 2, 50 rpm, pH 6.5 with 1% sodium dodecylsulphate; details: pH 6.5, 1% sodium dodecylsulphate
Description: Cumulative in vitro dissolution of felodipine and metoprolol in
a phosphate buffer of pH 6.5 with 1% sodium dodecylsulphate.
Method: USP dissolution apparatus No. 2, 50 rpm.

[2] = Cumulative in vitro dissolution of nifedipine and metoprolol (Example 2 tablet), USP dissolution apparatus No. 2, 100 rpm, pH 6.5 with 1% sodium dodecylsulphate; details: pH 6.5, 1% sodium dodecylsulphate
[3] = Cumulative in vitro dissolution of metoprolol (Reference example B tablet), USP dissolution apparatus No. 2, 50 rpm, phosphate buffer pH 6.8; details: phosphate buffer pH 6.8, 50 rpm
From the text: The dissolution rate in vitro from this tablet is shown in Table 3. |Cumulative in vitro dissolution of metoprolol in a phosphate buffer |pH 6.8. |Method: […]

Percent released over time (h) ([1]; 0 h) [%] | Percent released over time (h) ([1]; 2 h) [%] | Percent released over time (h) ([1]; 4 h) [%] | Percent released over time (h) ([1]; 8 h) [%] | Percent released over time (h) ([1]; 12 h) [%] | Percent released over time (h) ([1]; 16 h) [%] | Percent released over time (h) ([1]; 20 h) [%] | Percent released over time (h) ([2]; 0 h) [%] | Percent released over time (h) ([2]; 2 h) [%] | Percent released over time (h) ([2]; 4 h) [%] | Percent released over time (h) ([2]; 8 h) [%] | Percent released over time (h) ([2]; 12 h) [%] | Percent released over time (h) ([2]; 16 h) [%] | Percent released over time (h) ([2]; 20 h) [%] | Percent released over time (h) ([3]; 0 h) [%] | Percent released over time (h) ([3]; 1 h) [%] | Percent released over time (h) ([3]; 4 h) [%] | Percent released over time (h) ([3]; 8 h) [%] | Percent released over time (h) ([3]; 12 h) [%] | Percent released over time (h) ([3]; 20 h) [%] | SMILES
0 | 14 | 32 | 64 | 88 | 96 | 98 |  |  |  |  |  |  |  |  |  |  |  |  |  | CCOC(=O)C1=C(C)NC(C)=C(C(=O)OC)C1c1cccc(Cl)c1Cl (stereo not drawn) [felodipine, 4-(2,3-dichlorophenyl)-1,4-dihydro-2,6-dimethyl-3,5-pyridinedicarboxylic acid ethyl methyl ester]
0 | 5 | 16 | 39 | 65 | 86 | 95 | 0 | 6 | 16 | 34 | 50 | 62 | 75 | 0 | 23 | 59 | 86 | 99 | 100 | COCCc1ccc(OCC(O)CNC(C)C)cc1 (stereo not drawn) [metoprolol]
